What was measured:
[1] = system: green algae; assay: DNA1-19-1 first pond efficacy study (limnocorrals): green algae abundance; assay type: in vivo, green algae (Division Chlorophyta); details: 2 μM, until 10 days after application, LSD
Description: (§1) The method described by Schrader et al. (2000) was used to determine the potential for using the anthraquinone derivatives as selective algicides in catfish aquaculture ponds. All catfish ponds used in efficacy tests were maintained using commercial pond management practices and were located at the Thad Cochran Pond Facility, Mississippi State University, Stoneville, Miss. Anthraquinone analogs were dissolved in deionized water before application to water within the limnocorrals.
Limnocorrals in which test compound was applied to the enclosed water were randomly selected, and control (no test compound applied) limnocorrals were included in each efficacy study. For each sampling, two water samples (250 mL) were obtained from within each limnocorral (approximately 6-8 cm below the water surface and from opposite sides of each limnocorral) and mixed together in a 500 mL sample bottle to provide a representative sample of the water contained within the limnocorral.
Three pond efficacy studies were conducted with DNA1-19-1. […] To perform phytoplankton identification and enumeration, water samples were processed by preserving 50-mL subsamples with Lugol's solution and storing them at 4° C. until they could be identified and counted as “natural units” (i.e., colonies, filaments, or unialgal cells) using a Sedgewick-Rafter counting chamber at 300× magnification. […]

[2] = system: Anabaena circinalis; assay: DNA2-59-1 first pond efficacy study: Anabaena circinalis abundance; assay type: in vivo
Description: as §1
Limnocorrals in which test compound was applied to the enclosed water were randomly selected, and control (no test compound applied) limnocorrals were included in each efficacy study. […]
In the first study, application rates of 0.1 μM (37.7 μg/L), 0.3 μM ([…]), and 1.0 μM (377 μg/L) of DNA2-59-1 were tested using limnocorrals (three replicates per concentration) that were of the same type used for testing DNA1-19-1. […] Water samples were also analyzed to determine the persistence of DNA2-59-1 in the pond water, and this analysis was performed by using high-pressure liquid chromatography (HPLC) (method and results are described later).

Row | Compound | Numbers of green algae, treated vs controls (result in words) [1] | Numbers of Anabaena circinalis compared to controls (result in words) ([2]; 1 μM) | filaments of A. circinalis present (result in words) ([2]; 16 hours after application of 1 μM)
1 | CCN(CC)CCCC(C)NCc1ccc2c(c1)C(=O)c1ccccc1C2=O.O=P(O)(O)O.O=P(O)(O)O (stereo not drawn) [DNA1-19-1, 2-[methylamino-N-(1′-methyl-4′-N,N-diethylaminobutyl)]-9,10-anthraquinone diphosphate] | not significantly different | – | –
2 | CC(C)NCc1ccc2c(c1)C(=O)c1ccccc1C2=O [DNA2-59-1, 2-[methylamino-N-(1′-methylethyl)]-9,10-anthraquinone monophosphate] | – | significantly reduced | no filaments of A. circinalis were observed to be present
